In US10538497B2, “Compounds as indoleamine 2,3-dioxygenase inhibitors” (Merck Sharp & Dohme Corp., priority 2015, dated 2020):
Values belong to the molecule of their own block, whether it stands above or below them.

How the values were obtained:
IDO1 [1] = biological target: T1, IDO1 (Homo sapiens (Human), UniProt P14902); assay: IDO1 Enzyme Assay; conditions: read-out: IDO1 Enzyme Assay, IC50; HIS-tagged recombinant IDO1, 40 nM
IDO1 [2] = biological target: T1, IDO1; assay: IDO1 Cellular Assay in Frozen HEK293 Cells Transiently Transfected with Human IDO1; assay type: cell-based; conditions: read-out: IDO1 HEK293 Cell Assay, IC50
IDO1 [3] = biological target: T1, IDO1; assay: IDO1 Cellular Assay in Hela Cells Stimulated with IFNγ; assay type: cell-based; conditions: Hela cells stimulated with IFNγ 100 ng/mL; read-out: IDO1 HELA Cell Assay, IC50
[4] = HEK293 cells transiently transfected with human IDO1

T1 sequence (P14902 whole entry): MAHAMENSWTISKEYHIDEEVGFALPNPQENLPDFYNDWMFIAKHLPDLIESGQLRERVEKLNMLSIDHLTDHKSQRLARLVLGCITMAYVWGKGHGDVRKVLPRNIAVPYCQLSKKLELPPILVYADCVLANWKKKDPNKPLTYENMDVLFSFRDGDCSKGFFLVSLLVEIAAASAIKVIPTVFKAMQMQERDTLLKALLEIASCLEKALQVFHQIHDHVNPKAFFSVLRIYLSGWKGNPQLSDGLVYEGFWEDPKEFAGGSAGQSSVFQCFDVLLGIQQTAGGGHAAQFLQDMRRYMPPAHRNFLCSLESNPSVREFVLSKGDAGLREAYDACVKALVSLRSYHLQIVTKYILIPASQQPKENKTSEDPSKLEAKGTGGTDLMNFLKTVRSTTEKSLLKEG

Compound: N#CC12CC(CSc3nonc3/C(=N/O)Nc3ccc(F)c(Br)c3)(C1)C2 [Example 80, N-(3-bromo-4-fluorophenyl)-4-{[(3-cyanobicyclo[1.1.1]pent-1-yl)methyl]sulfanyl}-N′-hydroxy-1,2,5-oxadiazole-3-carboximidamide]
IC50 (IDO1 [1]): 125 nM | IC50 (IDO1 [2]; [4]): 78.1 nM | IC50 (IDO1 [3]): 37.9 nM

Compound: CNC(=O)N1CC(Sc2nonc2/C(=N/O)Nc2ccc(F)c(Br)c2)C1 [Example 81, 3-({4-[N-(3-bromo-4-fluorophenyl)-N′-hydroxycarbamimidoyl]-1,2,5-oxadiazol-3-yl}sulfanyl)-N-methylazetidine-1-carboxamide]
IC50 (IDO1 [1]): 41.8 nM | IC50 (IDO1 [2]; [4]): 36.9 nM | IC50 (IDO1 [3]): 42.9 nM

Compound: O=S1(=O)CCC(Sc2nonc2/C(=N/O)Nc2ccc(F)c(Br)c2)CC1 [Example 82, N-(3-bromo-4-fluorophenyl)-4-[(1,1-dioxidotetrahydro-2H-thiopyran-4-yl)sulfanyl]-N′-hydroxy-1,2,5-oxadiazole-3-carboximidamide]
IC50 (IDO1 [1]): 102 nM | IC50 (IDO1 [2]; [4]): 78.1 nM | IC50 (IDO1 [3]): 40.6 nM

Compound: O=C1CC[C@H](CSc2nonc2/C(=N/O)Nc2ccc(F)c(Br)c2)N1 [Example 83, N-(3-bromo-4-fluorophenyl)-N′-hydroxy-4-({[(2R)-5-oxopyrrolidin-2-yl]methyl}sulfanyl)-1,2,5-oxadiazole-3-carboximidamide]
IC50 (IDO1 [1]): 22.8 nM | IC50 (IDO1 [2]; [4]): 11.5 nM | IC50 (IDO1 [3]): 75.9 nM

Compound: CC(=O)N1CCC(Sc2nonc2/C(=N/O)Nc2ccc(F)c(Br)c2)CC1 [Example 87, 4-[(1-acetylpiperidin-4-yl)sulfanyl]-N-(3-bromo-4-fluorophenyl)-N′-hydroxy-1,2,5-oxadiazole-3-carboximidamide]
IC50 (IDO1 [1]): 99.7 nM | IC50 (IDO1 [2]; [4]): 133 nM | IC50 (IDO1 [3]): 70 nM

Compound: O=c1[nH]nc(CSc2nonc2/C(=N/O)Nc2ccc(F)c(Br)c2)cc1C(F)(F)F [Example 92, N-(3-bromo-4-fluorophenyl)-N′-hydroxy-4-({[6-oxo-5-(trifluoromethyl)-1,6-dihydropyridazin-3-yl]methyl}sulfanyl)-1,2,5-oxadiazole-3-carboximidamide]
IC50 (IDO1 [1]): 99.5 nM | IC50 (IDO1 [2]; [4]): 364 nM | IC50 (IDO1 [3]): 145 nM

Compound: CC(C)OC(=O)[C@H](C)NP(=O)(CCSc1nonc1/C(=N/O)Nc1ccc(F)c(Br)c1)N[C@@H](C)C(=O)OC(C)C [Example 97, 1-methylethyl (2S,6S)-4-[2-({4-[N-(3-bromo-4-fluorophenyl)-N′-hydroxycarbamimidoyl]-1,2,5-oxadiazol-3-yl}sulfanyl)ethyl]-2,6,9-trimethyl-7-oxo-8-oxa-3,5-diaza-4-phosphadecan-1-oate 4-oxide]
IC50 (IDO1 [1]): 132 nM | IC50 (IDO1 [2]; [4]): 745 nM | IC50 (IDO1 [3]): 380 nM

Compound: COCCNP(=O)(CCSc1nonc1/C(=N/O)Nc1ccc(F)c(Br)c1)NCCOC [Example 100, 4-[(2-{bis[(2-methoxyethyl)amino]phosphoryl}ethyl)sulfanyl]-N-(3-bromo-4-fluorophenyl)-N′-hydroxy-1,2,5-oxadiaxole-3-carboximidamide]
IC50 (IDO1 [1]): 98.8 nM | IC50 (IDO1 [2]; [4]): 582 nM | IC50 (IDO1 [3]): 342 nM

Compound: CNP(=O)(CCSc1nonc1/C(=N/O)Nc1ccc(F)c(Br)c1)NC [Example 103, 4-({2-[bis(methylamino)phosphoryl]ethyl}sulfanyl)-N-(3-bromo-4-fluorophenyl)-N′-hydroxy-1,2,5-oxadiazole-3-carboximidamide]
IC50 (IDO1 [1]): 48.5 nM | IC50 (IDO1 [2]): 84.5 nM | IC50 (IDO1 [3]): 32.3 nM

Compound: CNC(=O)N1CCC(Sc2nonc2/C(=N/O)Nc2ccc(F)c(Br)c2)CC1 [Example 104, 4-({4-[N-(3-bromo-4-fluorophenyl)-N′-hydroxycarbamimidoyl]-1,2,5-oxadiazol-3-yl}sulfanyl)-N-methylpiperidine-1-carboxamide]
IC50 (IDO1 [1]): 169 nM | IC50 (IDO1 [2]; [4]): 269 nM | IC50 (IDO1 [3]): 353 nM

Compound: COCCNC(=O)CCSc1nonc1/C(=N/O)Nc1ccc(F)c(Br)c1 [Example 106, 3-({4-[N-(3-bromo-4-fluorophenyl)-N′-hydroxycarbamimidoyl]-1,2,5-oxadiazol-3-yl}sulfanyl)-N-(2-methoxyethyl)propanamide]
IC50 (IDO1 [1]): 30 nM | IC50 (IDO1 [2]; [4]): 78.7 nM | IC50 (IDO1 [3]): 558 nM

More lines, now with the values ahead:

IC50 (IDO1 [1]): 51.8 nM | IC50 (IDO1 [2]; [4]): 36.4 nM | IC50 (IDO1 [3]): 43.5 nM
Compound: NC(=O)CSc1nonc1/C(=N/O)Nc1ccc(F)c(Br)c1 [Example 77, 2-({4-[N-(3-bromo-4-fluorophenyl)-N′-hydroxycarbamimidoyl]-1,2,5-oxadiazol-3-yl}sulfanyl)acetamide]

IC50 (IDO1 [1]): 90.9 nM | IC50 (IDO1 [2]; [4]): 101 nM | IC50 (IDO1 [3]): 57.7 nM
Compound: CN1CCOC(CSc2nonc2/C(=N/O)Nc2ccc(F)c(Br)c2)C1 (stereo not drawn) [Example 78, N-(3-bromo-4-fluorophenyl)-N′-hydroxy-4-{[(4-methylmorpholin-2-yl)methyl]sulfanyl}-1,2,5-oxadiazole-3-carboximidamide]

IC50 (IDO1 [1]): 61.6 nM | IC50 (IDO1 [2]; [4]): 27.5 nM | IC50 (IDO1 [3]): 24.1 nM
Compound: O=C(NCCSc1nonc1/C(=N/O)Nc1ccc(F)c(Br)c1)C(F)(F)F [Example 79, N-[2-({4-[N-(3-bromo-4-fluorophenyl)-N′-hydroxycarbamimidoyl]-1,2,5-oxadiazol-3-yl}sulfanyl)ethyl]-2,2,2-trifluoroacetamide]

IC50 (IDO1 [1]): 39.3 nM | IC50 (IDO1 [2]; [4]): 35.7 nM | IC50 (IDO1 [3]): 16.9 nM
Compound: N#C/N=C(\N)NCCSc1nonc1/C(=N/O)Nc1ccc(F)c(Br)c1 [Example 85, N-(3-bromo-4-fluorophenyl)-4-{[2-(N″- cyanocarbamimidamido)ethyl]sulfanyl}-N′-hydroxy-1,2,5-oxadiazole-3-carboximidamide]

IC50 (IDO1 [1]): 57.4 nM | IC50 (IDO1 [2]; [4]): 367 nM | IC50 (IDO1 [3]): 357 nM
Compound: O=c1c(NCCSc2nonc2/C(=N/O)Nc2ccc(F)c(Br)c2)c(N2CCOCC2)c1=O [Example 91, N-(3-bromo-4-fluorophenyl)-N′-hydroxy-4-({2-[(2-morpholin-4-yl-3,4-dioxocyclobut-1-en-1-yl)amino]ethyl}sulfanyl)-1,2,5-oxadiazole-3-carboximidamide]

IC50 (IDO1 [1]): 39 nM | IC50 (IDO1 [2]; [4]): 404 nM | IC50 (IDO1 [3]): 249 nM
Compound: O=c1c(NCCSc2nonc2/C(=N/O)Nc2ccc(F)c(Br)c2)c(N2CCCCC2)c1=O [Example 93, N-(3-bromo-4-fluorophenyl)-4-({2-[(3,4-dioxo-2-piperidin-1-ylcyclobut-1-en-1-yl)amino]ethyl}sulfanyl)-N′-hydroxy-1,2,5-oxadiazole-3-carboximidamide]

IC50 (IDO1 [1]): 26.8 nM | IC50 (IDO1 [2]; [4]): 193 nM | IC50 (IDO1 [3]): 73 nM
Compound: CC(C)Nc1c(NCCSc2nonc2/C(=N/O)Nc2ccc(F)c(Br)c2)c(=O)c1=O [Example 94, N-(3-bromo-4-fluorophenyl)-N′-hydroxy-4-{[2-({2-[(1-methylethyl)amino]-3,4-dioxocyclobut-1-en-1-yl}amino)ethyl]sulfanyl}-1,2,5-oxadiazole-3-carboximidamide]

IC50 (IDO1 [1]): 36.9 nM | IC50 (IDO1 [2]; [4]): 32.9 nM | IC50 (IDO1 [3]): 24.7 nM
Compound: NC(=O)CCSc1nonc1/C(=N/O)Nc1ccc(F)c(Br)c1 [Example 96, 3-({4-[N-(3-bromo-4-fluorophenyl)-N′-hydroxycarbamimidoyl]-1,2,5-oxadiazol-3-yl}sulfanyl)propanamide]

IC50 (IDO1 [1]): 84 nM | IC50 (IDO1 [2]; [4]): 231 nM | IC50 (IDO1 [3]): 195 nM
Compound: N/C(=C\[N+](=O)[O-])NCCSc1nonc1C(=NO)Nc1ccc(F)c(Br)c1 [Example 99, 4-[(2-{[(E)-1-amino-2-nitroethenyl]amino}ethyl)sulfanyl]-N-(3-bromo-4-fluorophenyl)-N′-hydroxy-1,2,5-oxadiazole-3-carboximidamide]
